In patent US4605785A, “1,1-diphenylpropanol derivatives, process for their preparation and pharmaceutical compositions containing them” (Richter Gedeon Vegyeszeti Gyar RT, priority 1982, dated 1986):

Legend:
hexabarbital oxidase = assay: Hexabarbital sleeping time (hexabarbital oxidase activity in vivo); parameters: species or system Hann.-Wistar rats; conditions: hexabarbital sodium 60 mg./kg. i.v., x ± S.E.; for Hexabarbital sleeping time in %-age of the control, 1 h: 1 h after single 40 mg./kg. oral dose; for Hexabarbital sleeping time in %-age of the control, 24 h: 24 h after single 40 mg./kg. oral dose
Experimental: The enzyme inducing activity was tested by the following methods: The change of hexabarbital oxidase activity was measured on Hann.-Wistar rats weighing 50-60 g. which were administered single 40 mg./kg. doses of the test compounds orally. One and 24 hours after treatment the animals were anaesthetized by a 60 mg./kg. i.v. dose of hexabarbital sodium, and the sleeping time, i.e. the time between the loss of righting reflex and full awakeness was measured (Noordhoex J.: Eur. J. Pharmacol., 3, 242, 1968). As a reference compound phenobarbital was used. The average of the groups and the standard error were determined. The results are given in Table 1, expressed in % of the control.

Hann.-Wistar rats = assay: Acute toxicity, oral; format: in vivo; conditions: 500 mg./kg. p.o. single dose; 14 days observation
Experimental: (§1) The acute toxicity of the compounds of formula (I) was determined on Hann.-Wistar rats selected from both sexes, weighing 160-180 g. each. The test compounds were administered in a single 500 mg./kg. oral dose. […] The results are set forth in the following Table 3, in which the percentage of the dead animals is indicated.

[1] = Relative weight of liver after treatment; format: in vivo, Female Hann.-Wistar rats; conditions: 24 h after single 40 mg/kg. oral dose; control 4.3 ± 0.17 = 100 ± 3.9%
Experimental: (§2) To evaluate the enzyme inducing activity of the compounds of formula (I) the activity of the polysubstrate monooxygenase enzyme system of the liver, after treatment with placebo and the test compounds, respectively, was also tested. Female Hann.-Wistar rats weighing 50-60 g. each were administered a single 40 mg/kg. dose of the test compounds orally. 24 hours after treatment the animals were decapitated and their livers were eliminated. […] The cytochrome P-450 concentration was determined on the basis of the carbon monoxide differential spectrum of a reduced microsome suspension (Omura T. et al.: J. Biol. Chem. 239, 2370 (1964)). The quantity of cytochrome b-5 was determined from a NaDH differential spectrum (Raw J. et al.: J. Biol. Chem., 234, 1867 (1959)); the activity of NADPH: ferricytochrome C (P-450) reductase (E.C. 1.6.2.4) was measured by the method of Williams C. […] The activity of the aniline hydroxylase from the velocity of the p-amino-phenol formation was determined by the method of R. S. et al.: Toxicol. […] Pharmacol., 22, 50 (1972), while the aminopyrine-demethylase activity was measured by the quantity of the formaldehyde formed, using the method developed by Gourlay G. K. et al.: Biochem. Pharmacol., 27, 965 (1978). The protein content was determined using the method by Lowry O. H. et al.: J. Biochem., 193, 265 (1951). […]

[2] = Microsomal protein content of liver after treatment (Lowry); format: in vivo, Female Hann.-Wistar rats; conditions: 24 h after single 40 mg/kg. oral dose; control 29.3 ± 1.01 = 100 ± 3.4%
Experimental: as §2

cytochrome b-5 = assay: Quantity of cytochrome b-5 in liver after treatment; format: in vivo, Female Hann.-Wistar rats; conditions: 24 h after single 40 mg/kg. oral dose; control 8.6 ± 0.43 = 100 ± 5.0%
Experimental: as §2

cytochrome P-450 = assay: Cytochrome P-450 concentration in liver after treatment; format: in vivo, Female Hann.-Wistar rats; conditions: 24 h after single 40 mg/kg. oral dose; control 12.8 ± 0.63 = 100 ± 4.9%
Experimental: as §2

[3] = system: NADPH: ferricytochrome C (P-450) reductase (E.C. 1.6.2.4); assay: Activity of NADPH: ferricytochrome C (P-450) reductase in liver after treatment; format: in vivo, Female Hann.-Wistar rats; conditions: 24 h after single 40 mg/kg. oral dose; control 4868 ± 296.2 = 100 ± 6.1%
Experimental: as §2

aniline hydroxylase = assay: Aniline hydroxylase activity in liver after treatment; format: in vivo, Female Hann.-Wistar rats; conditions: 24 h after single 40 mg/kg. oral dose; control 20.3 ± 0.88 = 100 ± 4.3%
Experimental: as §2

aminopyrine demethylase = assay: Aminopyrine demethylase activity in liver after treatment; format: in vivo, Female Hann.-Wistar rats; conditions: 24 h after single 40 mg/kg. oral dose; control 254.8 ± 7.47 = 100 ± 2.9%
Experimental: as §2

Acute toxicity, oral = format: in vivo, Hann.-Wistar rats; conditions: rat, in vivo, po
Experimental: as §1

[4] = CNS activity (electroshock, metrazole, thiosemicarbazide, strichnine, nicotine spasm, rotating rod, physostigmine lethality, yohimbine potentiation, analgesia); conditions: oral, already at 40 mg./kg.; in words
Experimental: The compounds of the formula (I) and phenobarbital were administered orally, in a dose of 40 mg./kg. and 80 mg./kg.

Row | Compound | Hexabarbital sleeping time in %-age of the control, 1 h (hexabarbital oxidase) | Hexabarbital sleeping time in %-age of the control, 24 h (hexabarbital oxidase) | Dead animals (%) (Hann.-Wistar rats) | relative weight of liver (g./100 g. of body weight), % of the control [1] | microsomal protein (mg./g. of liver), % of the control [2] | cytochrome b-5 (nmoles/g. of liver), % of the control (cytochrome b-5) | cytochrome P-450 (nmoles/g. of liver), % of the control (cytochrome P-450) | C(P-450) reductase (nmoles/g. of liver/min.), % of the control [3] | aniline hydroxylase (nmoles/g. of liver/min.), % of the control (aniline hydroxylase) | aminopyrine demethylase (nmoles/g. of liver/min.), % of the control (aminopyrine demethylase) | mortality at 336 h (Acute toxicity, oral; 500 mg./kg. p.o. single dose, 14 days observation, read-out: Dead animals (%)) | LD50 (Acute toxicity, oral; footnote to Table 3) | CNS activity (anticonvulsive, muscle coordinating, sedative) [4]
1 | CCC(O)(c1cc(C)ccc1C)c1ccccc1OCc1ccccc1 (stereo not shown) [B, 1-(2,5-dimethylphenyl)-1-(2-benzyloxyphenyl)-propane-1-ol] | 119 ± 7.7 % of the control | 58 ± 8.0 % of the control | .phi. |  |  |  |  |  |  |  |  |  | 
2 | CCC(O)(c1ccc(F)cc1)c1ccccc1OCc1ccccc1 (stereo not shown) [A, 1-(4-fluorophenyl)-1-(2-benzyloxyphenyl)-propane-1-ol] | 95 ± 20.2 % of the control | 46 ± 3.5 % of the control | .phi. | 109 ± 2.5% | 109 ± 3.8% | 124 ± 3.8% | 170 ± 8.8% | 155 ± 6.9% | 168 ± 8.9% | 150 ± 11.1% |  |  | 
3 | CCN(CC)C(=O)COc1ccccc1C(O)(CC)c1cccc(Cl)c1 (stereo not shown) [Compound D, 1-(3-chlorophenyl)-1-[2-(diethylcarbamoylmethoxy)-phenyl]-propane-1-ol] | 139 ± 14.4 % of the control | 50 ± 3.0 % of the control | .phi. | 107 ± 4.4% | 120 ± 6.7% | 122 ± 6.3% | 199 ± 17.7% | 144 ± 11.9% | 189 ± 12.3% | 129 ± 6.0% |  |  | 
4 | CCOC(=O)COc1ccccc1C(O)(CC)c1cccc(Cl)c1 (stereo not shown) [E, 1-(3-chlorophenyl)-1-[2-(ethoxycarbonylmethoxy)-phenyl]propane-1-ol] | 117 ± 1.1 % of the control | 58 ± 2.4 % of the control | .phi. |  |  |  |  |  |  |  |  |  | 
5 | CCC1(c2ccccc2)C(=O)NC(=O)NC1=O [phenobarbital, reference compound] | 250 ± 15.8 % of the control | 60 ± 7.3 % of the control |  |  |  |  |  |  |  |  | 100% | 254 mg/kg | significant anticonvulsive muscle coordinating and sedative effect
6 | CCN(CC)C(=O)COc1ccc(C(O)(CC)c2cccc(C(F)(F)F)c2)cc1 (stereo not shown) [C, 1-(3-trifluoromethylphenyl)-1-[4-(diethylcarbamoylmethoxy)-phenyl]-propane-1-ol] | 170 ± 10.0 % of the control | 44 ± 2.0 % of the control | .phi. |  |  |  |  |  |  |  |  |  | 
